“Also recorded” adds a separate entry of the source. Like-named read-outs stand apart in the source and are kept apart here.
Experiments:
rhino mice [1] = test: rhino mouse assay, comedolytic activity (utriculi size reduction); format: in vivo; details: for ED30: Table 4, topical activity; for ED30 (30% reduction in utriculi size): rhino mouse, FIG. 1 study
Experimental: (§1) The comedolytic activity of the compounds of the instant application has been evaluated by the rhino mouse assay model. The compounds were administered daily to rhino mice topically in ethanol at various concentrations for 5 days. Signs of skin irritation are evaluated at day 5 by visual inspection of the mouse skin and graded for edema, erythema (redness) and scaling (flakiness) with scales of 1-5 and 1-4, respectively. Skin samples were taken at day 7 and processed for image analysis to measure the size of utriculi.

[2] = rabbit skin irritation model; format: in vivo; details: rabbit, in vivo, topical or ocular; from IS3 and ED30, Table 4; read-out: Therapeutic index
rabbit skin = rabbit skin irritation model; format: in vivo; details: for Erythema score: Table 3, topical daily 14 days, ethanol; for IS3, irritation relative to TRA: species not given
rhino mice [3] = system: rhino mice; parameters: species or system rhino mouse; details: mouse, in vivo
Experimental: as §1

RARβ = target: T1, RARβ (Homo sapiens, UniProt P10826); test: apparent Kd for binding to RARβ; details: read-out: Kd (β)
T1 sequence (P10826 1-455): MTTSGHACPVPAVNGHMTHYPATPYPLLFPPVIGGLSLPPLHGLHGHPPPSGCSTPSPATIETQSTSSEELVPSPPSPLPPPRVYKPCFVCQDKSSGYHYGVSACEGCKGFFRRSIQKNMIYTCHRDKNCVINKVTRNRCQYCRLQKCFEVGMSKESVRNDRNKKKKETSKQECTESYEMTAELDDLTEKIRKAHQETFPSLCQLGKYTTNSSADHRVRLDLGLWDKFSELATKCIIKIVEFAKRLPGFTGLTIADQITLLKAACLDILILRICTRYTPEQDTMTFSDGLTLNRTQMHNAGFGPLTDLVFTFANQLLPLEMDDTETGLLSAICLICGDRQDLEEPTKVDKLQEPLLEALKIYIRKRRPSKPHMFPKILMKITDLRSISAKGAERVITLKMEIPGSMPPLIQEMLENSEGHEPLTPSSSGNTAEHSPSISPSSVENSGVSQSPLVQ

SCC 25 tongue SCC = test: inhibition of cell proliferation (3H-thymidine uptake), SCC 25; format: cell-based; details: Homo sapiens
Experimental: (§2) The compounds of the present invention have been also tested as inhibitors of cell proliferation (^3 H-thymidine uptake). Cells were plated on 96-well plates at a pre-determined density so that 80% cellular confluency is reached by day 7. 24 hr after plating, culture media was changed and cells were treated with the appropriate drug or vehicle (day 0). Culture media was changed on days 3 and 6. Cellular proliferation was measured on Day 7 by quantitating the amount of tritiated thymidine ([3H]-TdR) incorporated into the celular DNA (Odham, K. G. (1977) in: Radiotracer Techniques and Applications, edited by E. A. Evans and M. Murawatsu; M. Dekker Inc. New York; 2, 823).

MCF7 Breast CA (E2-dep.) = test: inhibition of cell proliferation (3H-thymidine uptake), MCF7; format: cell-based; details: Homo sapiens
Experimental: as §2

[4] = system: SK-BR-3 Breast CA (E2-indep.); test: inhibition of cell proliferation (3H-thymidine uptake), SK-BR-3; format: cell-based; details: Homo sapiens
Experimental: as §2

Calu-3 Lung CA = test: inhibition of cell proliferation (3H-thymidine uptake), Calu-3; format: cell-based; details: Homo sapiens
Experimental: as §2

RARγ = target: T2, RARγ (Homo sapiens, UniProt P13631); test: apparent Kd for binding to RARγ; details: read-out: Kd (γ)
T2 sequence (P13631 1-454): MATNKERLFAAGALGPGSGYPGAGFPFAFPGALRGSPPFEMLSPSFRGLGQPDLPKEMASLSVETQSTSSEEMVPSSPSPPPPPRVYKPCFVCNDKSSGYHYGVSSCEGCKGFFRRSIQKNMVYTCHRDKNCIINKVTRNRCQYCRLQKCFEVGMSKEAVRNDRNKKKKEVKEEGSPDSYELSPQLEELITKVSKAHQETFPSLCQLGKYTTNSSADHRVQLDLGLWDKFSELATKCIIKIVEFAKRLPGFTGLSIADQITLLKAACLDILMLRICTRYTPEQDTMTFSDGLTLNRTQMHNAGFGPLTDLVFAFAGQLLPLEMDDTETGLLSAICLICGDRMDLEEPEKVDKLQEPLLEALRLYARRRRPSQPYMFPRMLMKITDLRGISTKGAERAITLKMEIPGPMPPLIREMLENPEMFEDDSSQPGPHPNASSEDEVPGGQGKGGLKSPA

[5] = system: H3396 (ER+) breast carcinoma subcutaneous xenografts; test: tumor growth inhibition in athymic mice bearing H3396 xenografts; format: in vivo; details: intraperitoneal, every two days for 10 days
Experimental: This potent anti-proliferative activity is also translated in vivo on athymic mice bearing H3396 (ER+) breast carcinoma subcutaneous xenografts (P. A. Trail, et al., Cancer Research, 52, p. 5693-5700 (1992). Athymic mice were implanted with 0.72 mg (60-day release) estradiol pellets (Innovative Research of America, Toledo, Ohio) one day prior to the implantation of H3396 tumors. H3396 tumors were measured in two perpendicular directions at weekly or biweekly intervals, using calipers. Tumor volume was calculated according to the equation: V=I×w^2 /2, where V=volume (mm3), I=measurement of longest axis (mm), and w=measurement of axis perpendicular to 1. In general, there were 8-10 mice in each control or treatment group. Data are presented as median tumor size for control or treated groups. Antitumor activity is expressed in terms of median TVDD values, where TVDD=T-C/TVDT; T-C is defined as the median time (days) for treated tumors to reach 500 mm3 in size minus the median time for control tumors to reach 500 mm3 in size and TVDT is the time (days) for control tumors to double in volume (250-500 mm3).
In this experiment, the tumor growth delay was equivalent to 1.2 log cell kill at 30 mg/kg.

[6] = system: Detroit 562 Pharyngeal CA; test: inhibition of cell proliferation (3H-thymidine uptake), Detroit 562; format: cell-based; details: Homo sapiens
Experimental: as §2

RARα = target: T3, RARα (Homo sapiens, UniProt P10276); test: apparent Kd for binding to RARα; details: read-out: Kd (α)
T3 sequence (P10276 1-462): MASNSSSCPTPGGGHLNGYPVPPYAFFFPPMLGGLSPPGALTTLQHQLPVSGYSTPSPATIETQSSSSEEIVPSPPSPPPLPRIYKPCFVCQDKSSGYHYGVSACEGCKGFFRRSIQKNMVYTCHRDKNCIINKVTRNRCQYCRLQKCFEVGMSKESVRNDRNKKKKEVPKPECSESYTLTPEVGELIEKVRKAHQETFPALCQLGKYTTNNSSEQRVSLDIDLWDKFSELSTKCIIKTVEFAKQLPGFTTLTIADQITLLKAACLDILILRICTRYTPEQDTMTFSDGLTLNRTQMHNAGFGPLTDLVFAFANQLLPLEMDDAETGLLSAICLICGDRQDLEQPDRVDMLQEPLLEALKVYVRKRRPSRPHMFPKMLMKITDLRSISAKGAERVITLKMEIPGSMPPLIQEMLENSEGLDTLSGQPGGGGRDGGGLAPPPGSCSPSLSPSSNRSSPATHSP

[7] = system: H3396 Breast CA (E2-dep.); test: inhibition of cell proliferation (3H-thymidine uptake), H3396; format: cell-based; details: Homo sapiens
Experimental: as §2

[8] = 7 days, 3H-thymidine, read-out: IC50
[9] = topical daily in ethanol, 5 days
[10] = species and concentration not given

## CC(C)(C)/C=C\C1=CCC(C)(C)c2ccc(/C=C/c3ccc(C(=O)O)cc3)cc21 [Compound C, 4-[(E)-(5,6-Dihydro-5,5-dimethyl-8-((Z)-3,3-dimethyl-1-buten-1-yl)-2-naphthalenyl)ethenyl]benzoic acid]
Rhino mice [1]; 0.01 mM, topical daily in ethanol, 5 days
  Utriculi reduction (at 0.01 mM, printed in the 0.1 mM column): 30%
Rhino mice [1]
  ED30: 80000 nM
[2]
  selectivity ratio: < 20
Rabbit skin; concentration not given
  Erythema score: 6.0
Rabbit skin; in rabbits, concentration not given
  IS3, irritation in words: Very irritating
Rhino mice [3]
  IS3, irritation in words: Very irritating

## CC(C)(C)C#CC1=CCC(C)(C)c2ccc(/C=C/c3ccc(C(=O)O)cc3)cc21 [Compound I, 4-[(E)-(5,6-Dihydro-5,5-dimethyl-8-(3,3-dimethyl-1-butyn-1-yl)-2-naphthalenyl)ethenyl]benzoic acid]
RARβ
  Kd: 1.26 nM
SCC 25 tongue SCC; [8]
  IC50: 9500 nM
Rhino mice [1]; [9]
  Utriculi reduction at 0.1 mM: 72%
  Utriculi reduction at 1 mM: 100%
Rhino mice [1]
  ED30: 55000 nM
  ED30 (30% reduction in utriculi size): 55000 nM
MCF7 Breast CA (E2-dep.); [8]
  IC50: 6500 nM
[2]
  selectivity ratio: > 99
Rabbit skin
  therapeutic index compared with TRA and analogs: highly superior to TRA and to most of the closely related analogs
Rabbit skin; 1 mM, 14 days, FIG. 2
  irritation to rabbit skin: did not cause any irritation
Rabbit skin; 5 mM
  irritation to rabbit skin: did not cause any signs of irritation to rabbit skin; also recorded: did not show any signs of irritation
Rabbit skin; concentration not given
  Erythema score: 0
Rabbit skin; in rabbits at 5 mM
  IS3, irritation in words: No irritation
[4]; [8]
  IC50: 8 nM
Calu-3 Lung CA; [8]
  IC50: 10 nM
RARγ
  Kd: 25 nM
[5]; 30 mg/kg
  tumor growth delay equivalent (log cell kill): 1.2 log cell kill
[5]; FIG. 3
  potency in inhibiting tumor growth compared with doxorubicin: as potent as doxorubicin
[6]; [8]
  IC50: 5500 nM
RARα
  Kd: 2.23 nM
[7]; [8]
  IC50: 40 nM

## CCC(C)(/C=C\C1=CCC(C)(C)c2ccc(/C=C/c3ccc(C(=O)O)cc3)cc21)CC [Compound B, 4-[(E)-(5,6-Dihydro-5,5-dimethyl-8-((Z)-3-methyl-3-ethyl-1-penten-1-yl)-2-naphthalenyl)ethenyl]benzoic acid]
Rhino mice [1]; 1.6 mM, topical daily in ethanol, 5 days
  Utriculi reduction (at 1.6 mM, printed in the 1 mM column): 100%
Rabbit skin; concentration not given
  Erythema score: 2.8
Rabbit skin; [10]
  IS3, irritation in words: Irritating
Rabbit skin
  IS3, irritation relative to TRA: <TRA

## CC1=C(C#CC(C)(C)C)c2cc(/C=C/c3ccc(C(=O)O)cc3)ccc2C(C)(C)C1 [Compound A, 4-[(E)-(5,6-Dihydro-5,5-dimethyl-7-methyl-8-(3,3-dimethyl-1-butyn-1-yl)-2-naphthalenyl)ethenyl]benzoic acid]
Rhino mice [1]; [9]
  Utriculi reduction at 0.1 mM: 100%
Rhino mice [1]
  ED30: < 100000 nM
Rabbit skin; concentration not given
  Erythema score: 3.1
Rhino mice [3]
  IS3, irritation in words: Very irritating

## CC(C)(O)/C=C\C1=CCC(C)(C)c2ccc(/C=C/c3ccc(C(=O)O)cc3)cc21 [II, 4-[(E)-(5,6-Dihydro-5,5-dimethyl-8-((Z)-3-methyl-3-hydroxyl-1-buten-1-yl)-2-naphthalenyl)ethenyl]benzoic acid]
RARβ
  Kd: 2.19 nM
Rhino mice [1]; [9]
  Utriculi reduction at 0.1 mM: 8.4%
  Utriculi reduction at 1 mM: 84%
Rhino mice [1]
  ED30: 400000 nM
Rabbit skin; concentration not given
  Erythema score: 0
RARγ
  Kd: 1.57 nM
Rhino mice [3]
  IS3, irritation in words: No irritation
RARα
  Kd: 1.6 nM

## 4-[(E)-(5,6-Dihydro-5,5-dimethyl-8-(1-methyl-1-ethane-thio)-2-naphthalenyl)ethenyl]benzoic acid [Compound D]
Rhino mice [1]; [9]
  Utriculi reduction at 0.1 mM: 85.4%
Rhino mice [1]
  ED30: < 100000 nM
Rabbit skin; concentration not given
  Erythema score: 5.7
Rabbit skin; [10]
  IS3, irritation in words: Very irritating
Rabbit skin
  IS3, irritation relative to TRA: >>TRA

## CC1=C(/C=C/C(C)=C/C=C/C(C)=C/C(=O)O)C(C)(C)CCC1 [TRA, All-trans retinoic acid]
SCC 25 tongue SCC
  IC50: 50 nM
Rhino mice [1]; [9]
  Utriculi reduction at 0.1 mM: 64%
  Utriculi reduction at 1 mM: 100%
Rhino mice [1]
  ED30: 15000 nM
  ED30 (30% reduction in utriculi size): 28000 nM
MCF7 Breast CA (E2-dep.)
  IC50: 650 nM
Rabbit skin; concentration not given
  Erythema score: 4.8
Rabbit skin; Table 4
  IS3 (concentration necessary to achieve an irritation score of 3): 0.3 mM
Rabbit skin; concentrations above 0.1 mM, 14 days, FIG. 2
  irritation to rabbit skin: caused significant irritation to rabbit skin
[4]
  IC50: 1 nM
Calu-3 Lung CA
  IC50: 100 nM
[6]
  IC50: > 10000 nM
[7]
  IC50: 300 nM

Source: US6194601A, “5,6-dihydronaphthalenyl derivatives having retinoid-like activity” (Bristol-Myers Squibb Company, priority 1999, dated 2001)
